Usually MIC stands for the least concentration at which growth counts as inhibited.

Here are results for 50 molecules from US9845297B2, “Antimicrobial compounds and methods of making and using the same” (Melinta Therapeutics, Inc., priority 2009, dated 2017).

Structures are written as SMILES.

This test deals with Eschericia coli strain ATCC25922. The experiment in a line: standard microdilution assay to determine minimum inhibitory concentrations (MICs). Type of test: cell-based. The settings on record: Escherichia coli, ATCC25922, Eschericia coli strain ATCC25922, standard microdilution assay; read-out: E. coli ATCC25922 MIC. As to the method:
Minimum inhibitory concentrations (MICs) are determined by the microdilution method, typically in a final volume of 100 microliters, according to protocols outlined by The Clinical and Laboratory Standards Institute [CLSI; formerly the National Committee for Clinical Laboratory Standards (NCCLS)]. See CLSI: Methods for dilution antimicrobial susceptibility tests for bacteria that grow aerobically; approved standard-fifth edition. Wayne, Pa.: NCCLS; 2000. The assays can be also be performed in microtiter trays according to conventional methodologies as published by the CLSI. See CLSI. Methods for Dilution Antimicrobial Susceptibility Tests for Bacteria That Grow Aerobically; Approved Standard-Seventh Edition. CLSI Document M7-A7 [ISBN 1-56238-587-9] CLSI, 940 West Valley Road, Suite 1400, Wayne Pa. 19087-1898 USA, 2006).
The compounds of the present invention were tested for antimicrobial activity. The compounds were run against Eschericia coli strain ATCC25922 using a standard microdilution assay to determine minimum inhibitory concentrations (MICs). […] A “N/A” means that data is unavailable. It will be recognized by one skilled in the art that the compounds can be assessed against other bacterial organisms and that the presentation of data for activity against Eschericia coli is illustrative and in no way is intended to limit the scope of the present invention. The compounds of the present invention can be assayed against a range of other microorganisms depending upon the performance activity desired to be gathered. Furthermore, the “+”, “−”, and “N/A” representation and the selection of a cutoff value of 16 micrograms/ml is also illustrative and in no way is intended to limit the scope of the present invention.
Background: Broth dilution looks for growth in wells or tubes with falling amounts of substance.
Regarding `NCCCNCc1ccc(-c2c[nH]c(NC(=O)Nc3ccccc3OCCNC(N)=O)nc2=O)cc1` [Compound 1295], the MIC is more than 16 µg/mL.

In the case of `NCCCNCc1ccc(-c2c[nH]c(NC(=O)Nc3cc(N)ccc3Cl)nc2=O)cc1F` [Compound 483], the MIC is more than 16 µg/mL.

For `NC(=O)NCCCNCc1ccc(-c2c[nH]c(NC(=O)Nc3cc(F)c(F)cc3F)nc2=O)cc1` [Compound 395], the MIC is more than 16 µg/mL.

As to `Cc1nc(-c2cnccn2)sc1C(=O)Nc1ccn(CCC[C@H](CCCNC(=N)N)NCCCN)c(=O)n1` [Compound 167], the MIC is more than 16 µg/mL.

As to `N=C(N)NCCC[C@@H](CCCn1ccc(NC(=O)Nc2ccc(C(F)(F)F)cc2)nc1=O)NCCCN` [Compound 165], the MIC was more than 16 µg/mL.

In the case of `NCCCN(CCCN)Cc1ccc(-c2c[nH]c(Nc3nc4cc(C(F)(F)F)cc(Cl)c4o3)nc2=O)cc1F` [Compound 403], the MIC was more than 16 µg/mL.

Take `N=C(N)NCCCNCc1ccc(-c2c[nH]c(NC(=O)NC3CN(S(=O)(=O)c4cc(F)cc(F)c4F)C3)nc2=O)cc1` [Compound 779]: the MIC is more than 16 µg/mL.

As for `NCCCNCc1ccc(-c2c[nH]c(NC(=O)Nc3cc(C(F)(F)F)ccc3Cl)nc2=O)cc1F` [Compound 497], the MIC is less than 16 µg/mL.

On to `NCCCN1CCN(c2c[nH]c(NC(=O)Nc3ccccc3OC(F)(F)F)nc2=O)CC1` [Compound 425], for which the MIC is more than 16 µg/mL.

Regarding `N=C(N)NCCCCN1CCN(c2c[nH]c(NC(=O)Nc3ccccc3OC(F)(F)F)nc2=O)CC1` [Compound 534], the MIC was more than 16 µg/mL.

Regarding `N=C(N)NCCCN1CC2(CCN(c3c[nH]c(NC(=O)Nc4ccccc4OC(F)(F)F)nc3=O)CC2)C1` [Compound 484], the minimal inhibitory concentration (MIC) was more than 16 µg/mL.

For `NC[C@@H](N)c1cn(-c2ccc(-n3ccc(NC(N)=O)nc3=O)cc2)nn1` [Compound 150], the MIC is more than 16 µg/mL.

With `CN(C(=O)C[C@H](CCCNC(=N)N)NC(=O)CCCN)C1CNC(NC(N)=O)=NC1=O` (some centres unmarked) [Compound 102], the MIC was more than 16 µg/mL.

As for `CSCCNCc1ccc(-c2c[nH]c(NC(=O)Nc3cc(F)c(F)cc3F)nc2=O)cc1Cl` [Compound 268], the MIC is more than 16 µg/mL.

In the case of `NCCCNCc1ccc(-c2c[nH]c(Nc3nc4cc(F)c(F)cc4o3)nc2=O)c(F)c1` [Compound 467], the MIC was less than 16 µg/mL.

`N=C(N)NCCC[C@@H](CCCn1ccc(NC(=O)c2ccc(Cl)cc2)nc1=O)NCCCN` [Compound 155]: the MIC is more than 16 µg/mL.

For the molecule `O=C(Nc1nc(=O)c(-c2ccc(CNCCCF)c(Cl)c2)c[nH]1)Nc1ccccc1OC(F)(F)F` [Compound 271], the MIC is more than 16 µg/mL.

With `Cn1ccnc1CN(CCCN)Cc1ccc(-c2c[nH]c(NC(=O)Nc3cc(F)c(F)cc3F)nc2=O)cc1` [Compound 336], the MIC is more than 16 µg/mL.

For `NCCCNCc1ccc(-c2c[nH]c(NC(=O)Nc3c(Cl)cccc3Cl)nc2=O)cc1F` [Compound 479], the MIC was more than 16 µg/mL.

With `N=C(N)NCCCCN1CCC(c2c[nH]c(Nc3nc4ccccc4[nH]3)nc2=O)CC1` [Compound 510], the MIC was more than 16 µg/mL.

As for `NCCCNC(CCCN)c1ccc(-n2ccc(NC(N)=O)nc2=O)cc1` (centres unmarked) [Compound 144], the MIC is more than 16 µg/mL.

With `NC[C@@H](N)C(=O)Nc1ccc(-c2c[nH]c(NC(N)=O)cc2=O)cc1` [Compound 162], the MIC is more than 16 µg/mL.

In the case of `NCCCN(CCc1ccncc1)Cc1ccc(-c2c[nH]c(NC(=O)Nc3cc(F)c(F)cc3F)nc2=O)cc1` [Compound 354], the MIC was more than 16 µg/mL.

Regarding `NCCCN(CCCN)Cc1ccc(-c2c[nH]c(Nc3nc4cc(C(F)(F)F)ccc4s3)nc2=O)cc1F` [Compound 357], the MIC is more than 16 µg/mL.

As for `O=C(Nc1nc(=O)c(-c2ccc(CNCC3CC3)cc2)c[nH]1)Nc1ccccc1OC(F)(F)F` [Compound 274], the MIC was more than 16 µg/mL.

As to `NCCCN(CCCN)Cc1ccc(-c2c[nH]c(NC(N)=O)nc2=O)cc1` [Compound 149], the MIC is more than 16 µg/mL.

For the molecule `N=C(N)NCCC[C@@H](CCCn1ccc(NC(=O)Nc2ccc(F)cc2)nc1=O)NCCCN` [Compound 148], the MIC was more than 16 µg/mL.

As to `O=C(Nc1nc(=O)c(-c2ccc(CNCCCCO)cc2)c[nH]1)Nc1ccccc1OC(F)(F)F` [Compound 342], the MIC was more than 16 µg/mL.

For `O=C(Nc1nc(=O)c(-c2ccc(CNCCCc3cccnc3)cc2)c[nH]1)Nc1ccccc1OC(F)(F)F` [Compound 364], the MIC is more than 16 µg/mL.

In the case of `N=C(N)NCCCN(CCCN)Cc1ccc(-c2c[nH]c(Nc3ccc(C(F)(F)F)cc3)nc2=O)cc1F` [Compound 490], the MIC was more than 16 µg/mL.

Turning to `NCCCCN1CCC(c2c[nH]c(NC(=O)Nc3cccc(Cl)c3F)nc2=O)CC1` [Compound 536], the MIC is more than 16 µg/mL.

In the case of `Cn1nnc2cc(C(=O)Nc3ccn(CCC[C@H](CCCNC(=N)N)NCCCN)c(=O)n3)ccc21` [Compound 157], the MIC is more than 16 µg/mL.

On to `NCCCN(CCCNC(N)=O)Cc1ccc(-c2c[nH]c(NC(=O)Nc3cc(F)c(F)cc3F)nc2=O)cc1` [Compound 444], for which the MIC was more than 16 µg/mL.

In the case of `NCCCN(Cc1ccncc1)Cc1ccc(-c2c[nH]c(NC(=O)Nc3cc(F)c(F)cc3F)nc2=O)cc1` [Compound 337], the MIC was less than 16 µg/mL.

`N=C(N)NCCCNCc1ccc(-c2c[nH]c(NC(=O)NC3CCN(Cc4cc(F)c(F)cc4F)CC3)nc2=O)cc1` [Compound 652]: the MIC was more than 16 µg/mL.

Regarding `NCCCNCc1ccc(-c2c[nH]c(NC(=O)Nc3ccc(C(F)(F)F)cc3)nc2=O)cc1C(F)(F)F` [Compound 273], the minimal inhibitory concentration (MIC) is more than 16 µg/mL.

As to `CN(C(=O)C[C@H](CCCNC(=N)N)NC(=O)CCN)C1CNC(NC(N)=O)=NC1=O` (some centres unmarked) [Compound 103], the MIC was more than 16 µg/mL.

As to `NCCCNCc1ccc(-c2c[nH]c(Nc3ccc(C(F)(F)F)cc3)nc2=O)cc1` [Compound 487], the MIC was more than 16 µg/mL.

On to `NCCCNCc1ccc(-c2c[nH]c(NC(=O)Nc3cc(F)c(F)cc3F)nc2=O)cn1` [Compound 551], for which the minimal inhibitory concentration (MIC) is more than 16 µg/mL.

As for `NCc1cn(-c2ccc(-n3cnc(NC(N)=O)nc3=O)cc2)nn1` [Compound 140], the MIC was more than 16 µg/mL.

Turning to `Cc1nc(-c2cccc(NC(=O)Nc3ccn(CCC[C@H](CCCNC(=N)N)NCCCN)c(=O)n3)c2)no1` [Compound 151], the MIC is more than 16 µg/mL.

Turning to `NCCCNCc1ccc(-c2c[nH]c(NC(=O)NC3CN(Cc4cc(F)c(F)cc4F)C3)nc2=O)cc1` [Compound 710], the MIC was more than 16 µg/mL.

With `NCCCCN1CCN(c2c[nH]c(NC(=O)Nc3ccccc3OC(F)(F)F)nc2=O)CC1` [Compound 522], the MIC was more than 16 µg/mL.

Consider `NCCCN1CCCN(c2c[nH]c(NC(=O)Nc3ccccc3OC(F)(F)F)nc2=O)CC1` [Compound 492], for which the MIC is more than 16 µg/mL.

With `NCCCNCc1ccc(-c2c[nH]c(Nc3nc4ccccc4[nH]3)nc2=O)cc1F` [Compound 412], the MIC is less than 16 µg/mL.

`NCCCNCc1ccc(-c2c[nH]c(NC(=O)NCCCc3ccccc3OC(F)(F)F)nc2=O)cc1F` [Compound 539]: the MIC is less than 16 µg/mL.

On to `NCCCNCc1ccc(-c2c[nH]c(NC(=O)Nc3ccc(N4C(=O)C=CC4=O)cc3)nc2=O)cc1F` [Compound 417], for which the MIC is more than 16 µg/mL.

On to `N=C(N)NCCCN(CCCN)Cc1ccc(-c2c[nH]c(NC(=O)NCCc3ccc(Cl)cc3Cl)nc2=O)cc1` [Compound 476], for which the MIC is more than 16 µg/mL.

Consider `NCCCCCN1CCN(c2c[nH]c(NC(=O)Nc3ccccc3OC(F)(F)F)nc2=O)CC1` [Compound 518], for which the MIC is more than 16 µg/mL.

As to `NCCCN(CCCO)Cc1ccc(-c2c[nH]c(NC(=O)Nc3cc(F)c(F)cc3F)nc2=O)cc1` [Compound 331], the MIC is more than 16 µg/mL.
